Data taken from publication PMC11959706, “Allatostatin-C signaling in the crab Carcinus maenas is implicated in the ecdysis program” (The Journal of Experimental Biology, 2025).
“Also recorded” adds a separate entry of the source. Bridge positions count the residues as written; N and C are the ends. Ends that are not written are not given here.

What was measured:
AST-CRd (TR71151) = experiment: Aequorin luminescence receptor assay, CHO-K1-Aeq-Gα16 cells transiently expressing AST-CRd; assay type: cell-based, Carcinus maenas
Text: (§1) The transcriptome of neural tissue of C. maenas, which has been previously assembled ([Oliphant et al., 2018]), identified four putative AST-C receptor candidates: TR71151a-d ([Oliphant et al., 2018]). These were chemically synthesized with a modified 5′ Kozak sequence (GAATTCGCCACC) and cloned in frame into a pcDNA3.1(+) plasmid vector (Genscript, Piscataway, NJ, USA). Separate aliquots of OneShot TOP10® E. coli cells (Invitrogen, Paisley, UK) were transformed with the plasmids and grown on LB plates containing 100 µg ml^−1 ampicillin overnight at 37°C. Positive clones were cultured overnight in LB broth with 100 µg ml^−1 ampicillin at 37°C and plasmids extracted using a Qiagen Plasmid Midiprep kit according to the manufacturer's instructions. Purified plasmids were re-sequenced (MWG Eurofins, Ebersberg, Germany) and analyzed using Geneious 9.1.8 ([Kearse et al., 2012]).
Chinese hamster ovary (CHO-K1) cells containing stably expressed apoaequorin (Perkin Elmer, Boston, MA) and either Gα16 or Gq subunit (control cells) were cultured in Dulbecco's Modified Eagle Medium (DMEM) F-12 Nutrient Mixture Glutamax (Gibco®) supplemented with 10% fetal bovine serum (Gibco®). Cells were maintained in vented T75 flasks at 37°C in 5% CO2. Cells grown in a monolayer to approximately 60% confluency were transfected with pcDNA 3.1 constructs using FugeneHD® (Promega) according to the manufacturer's recommendations. Transfection medium was prepared by combining 800 µl Opti-MEM® (Gibco) with 10 µg vector and the cells further incubated overnight. Cells were detached from the culture flask by incubating for 10 min in 5 ml 0.2% EDTA in PBS, washed in 10 ml clear DMEM–F-12 containing L-glutamine and 15 mmol l^−1 HEPES, centrifuged (for 5 min at 260 g) and resuspended at a concentration of 5×10^6 cells ml^−1 in 0.2 µm filtered BSA medium (DMEM–F-12 containing L-glutamine, 15 mmol l^−1 HEPES and 0.1% BSA). Coelenterazine h (Invitrogen, Paisley, UK) was added to give a concentration of 5 µmol l^−1, and the cells incubated in the dark at room temperature with gentle rocking. Before the assay, cells were further diluted (10-fold) and incubated for 60 min before use. Dried aliquots of peptides were reconstituted in BSA medium, and 50 µl added in quadruplicate to a white 96-well plate (Optiplate®, Perkin Elmer). Cell suspensions were gently stirred and injected (50 µl per well) using a Mithras LB 940 microplate reader (Berthold Technologies, Bad Wildbad, Germany) and light emission (Ca^2+ response recorded for 30 s). Cells were then lysed by injection of 50 µl per well 0.3% Triton-X in BSA medium, and light emission recorded for a further 10 s to measure total Ca^2+ response. BSA medium was used for blank measurements (six replicates per plate) and transfection with empty vectors was used for negative controls. Data were analyzed using Mikrowin 2010 v5 (Mikrotek Laborsysteme, Overath, Germany) and SigmaPlot v15 (Systat Software, Grafiti, Slough, UK).

[1] = tested on: putative AST-C receptor candidates TR71151a-d other than AST-CR(d); experiment: Aequorin luminescence receptor assay, other putative AST-C receptor candidates; assay type: cell-based, Carcinus maenas; conditions: each candidate transiently expressed in CHO-K1-Aeq cells; 1µM peptide (Fig. S3)
Text: as §1, with “Positive clones were cultured overnight in LB broth with 100 µg ml^−1 ampicillin at 37°C and plasmids extracted using a Qiagen Plasmid Midiprep kit according to the manufacturer's instructions.” left out
Chinese hamster ovary (CHO-K1) cells containing stably expressed apoaequorin (Perkin Elmer, Boston, MA) and either Gα16 or Gq subunit (control cells) were cultured in Dulbecco's Modified Eagle Medium (DMEM) F-12 Nutrient Mixture Glutamax (Gibco®) supplemented with 10% fetal bovine serum (Gibco®). […] Cell suspensions were gently stirred and injected (50 µl per well) using a Mithras LB 940 microplate reader (Berthold Technologies, Bad Wildbad, Germany) and light emission (Ca^2+ response recorded for 30 s). Cells were then lysed by injection of 50 µl per well 0.3% Triton-X in BSA medium, and light emission recorded for a further 10 s to measure total Ca^2+ response. […]

[2] = tested on: semi-isolated heart preparations; experiment: Semi-isolated heart preparation bioassay; design: species or system Carcinus maenas; conditions: 10^−6 mol l^−1 in saline, 20°C, recorded about 2 min; four preparations
Text: To determine possible myotropic and/or myoinhbitory activity of AST-C, AST-CC and AST-CCC, inter-molt crabs (∼65 mm carapace width) were ice-anaesthetized and rapidly decerebrated before removing all limbs and the dorsal carapace to expose the heart and pericardial cavity. The preparation was then fitted into a bowl lined with tissue, to provide a stable saline-flooded environment. The heart was connected to a force transducer (MLT0210/A) via a micro-fishing hook (size 28) and fine nylon (0.08 mm) monofilament. Connection to a PC with Chart 4.0 software was via a Bridge Pod (ML301) and Powerlab 4/20 (AD Instruments, Castle Hill, NSW, Australia). Transducer gain was set at maximum sensitivity (200 μV). Heart preparations were initially perfused with Carcinus physiological saline ([Saver et al., 1999]) at room temperature (20°C). Once a stable output was achieved, hearts were then perfused by sequentially adding approximately 2 ml saline containing AST-C, AST-CC and AST-CCC (GenScript Biotech, Piscataway, NJ, USA), and finally adding CCAP as a positive control (all peptides were at a concentration of 10^−6 mol l^−1 in saline). Each peptide addition was followed by extensive washout with saline, recording heart rate and beat amplitude for approximately 2 min after application of each peptide.

Y-organs = experiment: Y-organ in vitro bioassay of ecdysteroid synthesis (ecdysteroid RIA); assay type: cell-based, Carcinus maenas; conditions: native MIH 2 nmol l^−1, 24 h incubation, positive control
Protocol: To determine the possible activity of AST-C and/or AST-CC on ecdysteroid synthesis, Y-organs (YOs) were dissected from ice-anaesthetized crabs and used in the in vitro bioassay as detailed previously ([Webster, 1986]). Following 24 h incubations, culture medium was aspirated and snap frozen in liquid nitrogen prior to ecdysteroid RIA. YOs were sonicated in PBS, centrifuged (13,000 g for 5 min at room temperature) and assayed for protein concentration using a BCA protein kit (EMD Millipore, Burlington MA, USA). Protein concentrations (BSA standards) were used to normalize ecdysteroid synthesis between YO pairs.
Ecdysteroid RIAs were performed on 20 µl aliquots of culture medium using the following conditions: 100 μl 1:2000 anti-ecdysteroid serum HB-2E (a kind gift from R. D Watson, Alabama University), 100 µl H^−3 Ponasterone A [24, 25, 26, 27-3H (N), 3.5 TBq mmol^−1 (American Radiochemical Company, St Louis, MO, USA)] at 28,000 dpm per tube. 25-Deoxyecdysone (a kind gift from Prof. R. Lafont, Sorbonne University, Paris) was used as a standard (range 2500–19.5 pg per tube), and unknowns and standards were assayed in triplicate. Bound was separated from free using 50 µl per tube immobilized donkey anti-rabbit nitrocellulose suspension (Sac-Cel), as detailed for the AST-C RIA. Pellets were resuspended in 600 µl Hi-Safe 3 (Perkin Elmer) prior to counting. Using this RIA, both ecdysone and 25-deoxyecdysone (the two ecdysteroids synthesized by C. maenas YOs) were equally recognized.

## AGCKNFFWKTFTSC [somatostatin, vertebrate homolog/paralog of AST-C, reference compound]
AST-CRd (TR71151); 10, 1 µmol l^−1 peptide, quadruplicate
  Activation of AST-CRd at saturating doses: failed to activate; also recorded: without effect

## SYWKQCAFNAVSCF-NH2 (disulfide 6-13 (inferred)) [AST-CCC, C. maenas AST-C family neuropeptide, C-terminally amidated; synthetic (GenScript)]
AST-CRd (TR71151); 10^−6 mol l^−1
  Activation of AST-CRd at extremely high doses: slight activation
AST-CRd (TR71151); peptide at 10 µmol l^−1, quadruplicate
  Luminescence response relative to the maximum response elicited by 10 µmol l^−1 AST-CC: less than 20%
[1]
  Activation of the other candidate AST-C receptors: not activated
[2]
  Effect on heartbeat amplitude: entirely unaffected
  Effect on heartbeat frequency (heart rate): entirely unaffected

## crustacean cardioactive peptide [CCAP, reference compound]
[2]
  Effect on heartbeat amplitude: increased amplitude
  Effect on heartbeat frequency (heart rate): more than doubled

## molt inhibiting hormone [reference compound]
Y-organs
  Effect on ecdysteroid synthesis by Y-organs: large inhibitory effect
Y-organs; listed as MIH
  Effect on ecdysteroid synthesis by Y-organs: full inhibition
